In this assay the test system is anterior chamber aqueous humor pressure load rat model. The assay can be described thus: Retinal thickness (IPL, INL, ONL) in retinal damage model induced by anterior chamber aqueous humor pressure load. The format is in vivo, Rat; Slc: SD. To be noted: for Thickness of INL (μm) / Thickness of IPL (μm) / Thickness of ONL (μm): 10 mg/mL intravenous (1 mL/kg once) about 30 minutes before ischemic load (test group 4), 14 days after model creation, mean ± S.E., 10 animals. As for the experimental part: • Name: Compound 9 • Source: Synthesized in the above Examples • Used amount: 0.4 mL (50 mg/mL solution) • Storage conditions: Freezing, light shielding
Method for preparing test substance (1 mg/mL): A high concentration solution prepared at 50 mg/mL was diluted 50 times with a medium to prepare a 1 mg/mL administration solution.
• Name: MK-801 • Distributor: SIGMA-ALDRICH • Use amount: 0.0501 g • Storage condition: refrigerated (2° C. to 8° C.)
Method for preparing positive control substance (10 mg/mL): 0.0501 g was weighed out and made up to a total volume of 5 mL with a control substance (physiological saline).
• Species and strains: Rat; Slc: SD • Number of animals on arrival and sex: 50 males • Age in weeks at arrival: 6 weeks old • Body weight range at arrival: 147.2 to 170.0 g • Source: Japan SLC, Inc.
Grouping was performed two days before the first creation of the retinal damage model induced by an anterior chamber aqueous humor pressure load. Using the daily body weight as an index, stratified random allocation was performed using SAS (Ver. 9.3, SAS Institute Japan Ltd.) and EXSUS (Ver. 8.0, CAC Croit Corporation) so that an average value of the body weights of each group was approximately uniform.
• Administration route: Eyedrop administration, intravenous administration • Administration method (eyedrop): Eyedrop administration was performed on a treated eye (right eye) of a rat using a micropipette 4 times a day (at intervals of 1.5 hours or more). • Administration method (intravenous): The amount of administration solution, calculated from the body weight on the day of administration, was administered from the tail vein using a syringe and an injection needle about 30 minutes before ischemic load. • Time of administration: Administration was performed according to the following schedule.
1. 10 mg/kg xylazine hydrochloride was intramuscularly administered on the model creation day (day 0). A rat was placed in an anesthesia box and subjected to general anesthesia with isoflurane (5%, oxygen:nitrous oxide=1:3). When anesthesia was effective, the rat was taken out of the anesthesia box, an inhalation anesthetic mask was worn, and anesthesia was maintained with isoflurane (1% to 5%, oxygen nitrous oxide=1:3).
2. The body temperature was maintained at 37° C. with a warming mat, and a mydrin P ophthalmic solution was instilled in the right eye (treated eye) of the rat to dilate the pupil, then the cravit ophthalmic solution 1.5% (Santen Pharmaceutical Co., Ltd.) was instilled.
3. A bottle of an IV bag containing physiological saline was previously suspended so that a water surface was 155 cm (100 mmHg or more) higher than the eye of the rat. The IV bag was connected to a pediatric infusion set (Terumo Corporation), a 27 G injection needle thereof was inserted into and fixed to the anterior chamber while slightly dripping the liquid from a needle tip. The model was created in the light phase (6:00 to 18:00) in consideration of the diurnal variation of the intraocular pressure.
4. After the needle was inserted into the anterior chamber, pressure (100 mmHg or more) was loaded and maintained in the anterior chamber by associating the reflux system.
5. After an ischemic load for 45 minutes, the injection needle and the like were removed, the inhalation anesthetic mask was removed, and the rat was sufficiently woken up under a warming mat, and then returned to the cage.
6. For 2 days after surgery, 10 mg/kg xylazine hydrochloride was intramuscularly administered as an analgesic for the purpose of alleviating the pain after the treatment.
1. Fourteen days after model creation, general anesthesia was performed with isoflurane (5%, oxygen:nitrous oxide=1:3), euthanasia was then performed by exsanguination, a suture was placed as a marker at the 12 o'clock position of the ocular conjunctiva, and eyeball enucleation was performed.
2. […]

[1] abbreviates: 10 mg/mL intravenous, right eye, 600 μm from optic disk, mean per animal.
The mark [2] stands for this setting: 10 mg/mL intravenous, right eye, 900 μm from optic disk, individual measurements per animal.
[3] abbreviates: 10 mg/mL intravenous, right eye, 900 μm from optic disk, mean per animal.
[4] abbreviates: MK-801, 10 mg/mL intravenous, right eye, individual animals 401-410.
Where [5] appears, read: test group 4 (positive control, intravenous).

Results on one compound are retold here after patent US20260091082A1, “CYCLIC PEPTIDE DERIVATIVE COMPOSITION FOR TREATING OR PREVENTING EYE DISEASE” (DKS Co. Ltd., priority 2022, published 2026).

Values joined by “and” are separate entries in the source; they are usually repeats but may differ in a detail not shown here. Equal values may be shown once.

Regarding `C[C@]12N[C@H](Cc3ccccc31)c1ccccc12` [MK-801, reference compound], the “Thickness of IPL (μm), Distance from Optic Disk 600 μm” value (10 mg/mL intravenous, right eye, 600 μm from optic disk, individual measurements per animal) is 51.638 μm and 52.865 μm and 43.668 μm and 44.847 μm and 43.645 μm and 46.040 μm and 48.131 μm and 48.555 μm and 40.323 μm and 42.059 μm and 40.708 μm and 38.245 μm and 23.016 μm and 30.373 μm and 47.349 μm and 49.055 μm and 51.482 μm and 47.356 μm and 46.081 μm and 48.016 μm and 49.876 μm and 42.369 μm and 44.364 μm and 47.408 μm and 44.018 μm and 42.681 μm and 28.572 μm and 45.620 μm and 44.033 μm and 47.914 μm. Besides, under setting [1], the “Thickness of INL (μm), Distance from Optic Disk 600 μm, Mean” value was 37.378 μm and 28.006 μm and 30.469 μm and 44.484 μm and 31.392 μm and 28.027 μm and 18.807 μm and 31.969 μm and 25.534 μm and 35.604 μm; the “Thickness of IPL (μm), Distance from Optic Disk 600 μm, Mean” value was 51.460 μm and 43.628 μm and 44.683 μm and 48.031 μm and 42.133 μm and 40.545 μm and 27.320 μm and 47.341 μm and 47.624 μm and 47.337 μm. For the same compound, under setting [2], the “Thickness of INL (μm), Distance from Optic Disk 900 μm” value was 38.448 μm and 33.242 μm and 40.306 μm and 28.655 μm and 32.584 μm and 30.110 μm and 27.670 μm and 26.653 μm and 27.205 μm and 46.278 μm and 47.196 μm and 49.419 μm and 26.256 μm and 28.272 μm and 28.572 μm and 28.638 μm and 29.653 μm and 28.909 μm and 18.887 μm and 19.638 μm and 20.068 μm and 28.079 μm and 29.083 μm and 31.101 μm and 27.776 μm and 27.037 μm and 27.422 μm and 33.221 μm and 42.252 μm and 40.931 μm; the “Thickness of IPL (μm), Distance from Optic Disk 900 μm” value is 53.305 μm and 54.992 μm and 50.505 μm and 49.780 μm and 48.950 μm and 49.327 μm and 45.307 μm and 46.968 μm and 47.454 μm and 59.185 μm and 57.507 μm and 59.952 μm and 47.370 μm and 46.144 μm and 43.062 μm and 44.289 μm and 45.534 μm and 44.647 μm and 26.506 μm and 30.220 μm and 35.348 μm and 47.148 μm and 37.774 μm and 39.021 μm and 47.795 μm and 46.694 μm and 44.145 μm and 52.722 μm and 49.687 μm and 46.942 μm. Under setting [3], the “Thickness of INL (μm), Distance from Optic Disk 900 μm, Mean” value is 37.332 μm and 30.450 μm and 27.176 μm and 47.631 μm and 27.700 μm and 29.067 μm and 19.531 μm and 29.421 μm and 27.412 μm and 38.801 μm; the “Thickness of IPL (μm), Distance from Optic Disk 900 μm, Mean” value was 52.934 μm and 49.352 μm and 46.576 μm and 58.881 μm and 45.525 μm and 44.823 μm and 30.691 μm and 41.314 μm and 46.211 μm and 49.784 μm. In addition, under “300 μm from optic disk”, the “Thickness of INL (μm)” value is 28.96±1.66 μm, the “Thickness of IPL (μm)” value was found to be 38.05±1.38 μm and the “Thickness of ONL (μm)” value stood at 42.08±1.66 μm. For the same compound, for the setting “600 μm from optic disk”, the “Thickness of INL (μm)” value came to 31.17±2.21 μm, the “Thickness of IPL (μm)” value was found to be 44.01±2.11 μm and the “Thickness of ONL (μm)” value is 45.28±1.75 μm. Where the note is “900 μm from optic disk”, the “Thickness of INL (μm)” value stood at 31.45±2.48 μm, the “Thickness of IPL (μm)” value came out at 46.61±2.34 μm and the “Thickness of ONL (μm)” value is 45.02±1.52 μm. Further, under setting [4], the “Thickness of ONL, distance from optic disk 300 μm (single measurement)” value is 49.987 μm and 47.894 μm and 44.120 μm and 44.371 μm and 45.163 μm and 41.953 μm (2×) and 41.468 μm and 43.326 μm and 44.787 μm and 50.806 μm and 50.609 μm and 36.032 μm and 35.996 μm and 37.658 μm and 33.339 μm and 36.442 μm and 39.921 μm and 32.751 μm and 35.889 μm and 35.090 μm and 45.922 μm and 43.490 μm and 44.532 μm and 39.787 μm and 38.794 μm and 36.469 μm and 48.975 μm and 47.935 μm and 47.053 μm; the “Thickness of ONL, distance from optic disk 600 μm (single measurement)” value is 54.862 μm and 55.200 μm and 39.132 μm and 42.030 μm and 46.694 μm and 48.910 μm and 53.036 μm and 51.036 μm and 37.502 μm and 37.761 μm and 41.216 μm and 41.515 μm and 39.682 μm and 37.237 μm and 46.859 μm and 44.945 μm and 44.217 μm and 44.145 μm and 50.162 μm and 48.259 μm and 48.902 μm and 41.131 μm and 49.194 μm and 53.714 μm and 39.721 μm and 42.784 μm and 37.125 μm and 46.818 μm and 44.498 μm and 50.125 μm; the “Thickness of ONL, distance from optic disk 900 μm (single measurement)” value is 50.646 μm and 51.429 μm and 55.123 μm and 43.100 μm and 44.611 μm and 41.813 μm and 43.865 μm and 45.150 μm and 42.936 μm and 50.620 μm and 52.065 μm and 51.575 μm and 38.927 μm and 44.018 μm and 42.314 μm and 45.648 μm and 44.179 μm and 43.513 μm and 35.404 μm and 34.065 μm and 37.439 μm and 46.755 μm and 42.208 μm and 44.217 μm and 44.685 μm and 43.759 μm and 46.364 μm and 47.690 μm and 47.148 μm and 49.406 μm. For the same compound, under setting [5], the “Inner nuclear layer (INL) thickness compared with the control group, in words” value is reported as “no obvious change was observed” and the “Outer nuclear layer (ONL) thickness compared with the control group, in words” value is on record as “statistically significant differences were observed at measurement sites between 600 to 900 μm from the optic disk”. In addition, the “Inner plexiform layer (IPL) thickness compared with the control group, in words” value (test group 4 (positive control, intravenous), 300 to 900 μm from the optic disk) is on record as “statistically significant suppression of retinal damage was shown at all measurement sites”.
